“Also recorded” adds a separate entry of the source. Positions of bridges follow the written chain, without caps; N, C: chain ends. Non-standard residues stand in square brackets, D forms with d. No end group written: not given here.

For test [1], the system named is peripheral blood mononuclear cells (PBMC). Kind of test: Whole cell bead binding assay, PBMC. Set-up: species or system human. Particulars: peptide on beads. The procedure: (§1) Four bladder cancer cell lines including 5637 (HTB-9), SCaBER, TCCSUP (HTB-5), and T24 (HTB-4) were purchased from the American Type Culture Collection (Manassas, Va.). The isolation, characterization and maintenance of normal urothelial cells was previously described in detail (Bagai, et al., J Biol Chem, (2002) 277: 23828-23837). Normal peripheral blood mononuclear cells were prepared by using the Ficoll-Paque gradient method from peripheral blood of healthy donors. Bladder cancer tissue obtained from cystectomy was cut into pieces, digested with collagenase at 37° C. for 1-2 hours per the manufacturer's protocol, and filtered through a 40-μm strainer to make single cell suspension. Tumor cells were then isolated with Ficoll-Paque gradient method (800 g, 30 min at 4° C.). Informed consent was obtained from each patient or healthy donor before specimens were collected.
The beads were washed extensively with double-distilled water and phosphate-buffered saline (PBS) before screening. Bladder cancer cells and normal urothelial cells were detached from culture dishes with trypsin/EDTA or a Detach kit (PromoCell, Heidelberg, Germany), washed with their corresponding culture medium, resuspended at 10^6 cells/ml and incubated with OBOC beads in Petri dishes in a humidified CO2 incubator at 37° C. with shaking (60 rpm). […]

In test [2] the test system is 12 cell lines with different origins. Briefly: Whole cell bead binding assay, 12 cell lines of different origins. Set-up: species or system human.
For test [3], the system named is primary bladder cancer cells from patients. Kind of test: Whole cell bead binding assay, primary bladder cancer cells from patients. The arrangement: species or system human. The conditions noted are these: beads coated with PLZ4; fresh bladder cancer specimens. The procedure:
as §1
The beads were washed extensively with double-distilled water and phosphate-buffered saline (PBS) before screening. […]
The cell surface molecules on established cell lines in culture may not be the same as those molecules on primary bladder cancer cells. It was assessed if PLZ4 could bind to bladder cancer cells from patients. […]

Test [4] deals with T1, K562 cells transfected with a503 integrin (Homo sapiens, UniProt P05106+P06756).
T1 construct: expressed in transfected cells; host or cells: K562
Briefly: Bead binding to K562 cells transfected with integrin. The conditions noted are these: OBOC beads bearing PLZ4. On the procedure:
Here, OBOC beads bearing PLZ4 peptides on the surface were incubated with K562 cells transfected with various integrins. K562 cells express endogenous a501 integrin. […] Several other ligands obtained from the initial screening also contain the DGR motif. […] To identify which amino acids are involved in determining cell binding and binding specificity, “alanine walk” was performed combined with the rainbow bead coding methods (Luo, et al., J Comb Chem, (2008) 10: 599-604). The amino acids aspartic acid (D, the X2 position), arginine (R, X4) and phenylalanine (F, X7) are important for cell binding. Replacement of any of these amino acids with alanine completely abolished the binding of the peptides to 5637 cells (FIG. 6B). […] Methionine at the X5 position could be replaced to many other amino acids without compromising the binding affinity. Based on this analysis, the three amino acids (D, G and R) at the N-terminus together with the two amino acids (G and F) at the C-terminus determine the binding specificity. Therefore, the binding pocket may be in the clover shape: one for the N-terminal three amino acids, one for the C-terminal two amino acids and a middle pocket. So w the depth of the middle binding pocket by adding different numbers of glycine residue to the X5 position. […]

Test [5] has as its system normal canine bladder urothelial cells. Briefly: Whole cell binding assay of Example 2, normal canine urothelial cells. The conditions noted are these: PLZ4 beads. The procedure: (§2) This experiment was repeated 3 times for cell lines. […] 5637 human bladder cancer cell line; b. […] The average diameter of the beads is 90 μm. […] This experiment was repeated for 3 times. (200×)
(§3) To determine the binding of PLZ4 to canine TCC cell lines, whole cell binding assay was performed. PLZ4 was synthesized on TentaGel S NH2 resin beads (Rapp Polymere Gmbh, Germany) (Pegram, et al., J Clin Oncol (1998) 16:2659-2671), and incubated with single suspensions of five different canine carcinoma cell lines including K9TCC-PU, K9TCC-PU-AxA, K9TCC-PU-In, K9TCC-PU-AxC, and K9TCC-PU-Nk (kindly provided by Deborah Knapp at Purdue University, West Lafayette, Ind., USA) at 10^6 cells/ml. The negative control was normal urothelial cells obtained from dogs that were euthanized due to non-bladder-related disorders. Human bladder cancer cell line, 5637 were served as the positive control. If PLZ4 bound to cells in suspension, then the bead surface was covered with cells. Over 95% of the bead surface was covered with 5637 and K9TCC cells (FIG. 7A-a and b, respectively).

Test [6] concerns bladder cells from a dog with chronic cystitis. Briefly: Whole cell binding assay of Example 2, chronic cystitis bladder cells. The arrangement: species or system canine. The conditions noted are these: PLZ4 beads. On the procedure: as §2, §3
The next test concerns K9TCC-PU-In. Briefly: Binding affinity by PLZ4-biotin / avidin-HRP on fixed K9TCC-PU-In cells. The arrangement: species or system canine. Particulars: restated in b239 without cell line, read-out: Kd50. On the procedure:
FIG. 8A-B. Binding affinity and biological effects of PLZ4 against canine TCC cell lines. A. Binding affinity of PLZ4 against K9TCC-PU and K9TCC-PU-In. Twenty thousands of K9TCC-PU and K9TCC-PU-In were seeded in 96 well plates. After culture for 24 hours, cells were fixed and incubated with different concentrations of PLZ4-biotin for 1.5 hours following avidin-HRP for another 1 hour. Cells treated with avidin-HRP only were served as background control. The color was developed using TMB substrate and read by ELISA readers. The experiment was performed in triplicates and repeated for 3 times. The mean value of the 3 experiments were shown. B. Biological effects of PLZ4 on canine TCC cell lines. Ten thousand K9TCC-PU-In and K9TCC-PU cells were seeded in the 96 well plates and treated with increasing concentrations of PLZ4 or PBS for 2 days. The cell proliferation assay was assessed by WST-8 assay per manufacturer's protocol. Cells treated with PBS were used as 100% control. Each group was performed in triplicate, repeated for 3 times. Mean values at each concentration are presented.
To further quantify the binding affinity, K9TCC-PU and K9TCC-PU-In cells were seeded in 96 well plates, fixed, and incubated with increasing concentrations of PLZ4-biotin followed by avidin-HRP. […]

Test [7] deals with bladder lymphoid hyperplasia specimen. Briefly: Binding to canine bladder lymphoid hyperplasia specimen. Particulars: data not shown.
In test [8] the test system is vascular endothelial cells. Briefly: Binding to vascular endothelial cells.

T1 sequence (P06756 31-889 limits assumed): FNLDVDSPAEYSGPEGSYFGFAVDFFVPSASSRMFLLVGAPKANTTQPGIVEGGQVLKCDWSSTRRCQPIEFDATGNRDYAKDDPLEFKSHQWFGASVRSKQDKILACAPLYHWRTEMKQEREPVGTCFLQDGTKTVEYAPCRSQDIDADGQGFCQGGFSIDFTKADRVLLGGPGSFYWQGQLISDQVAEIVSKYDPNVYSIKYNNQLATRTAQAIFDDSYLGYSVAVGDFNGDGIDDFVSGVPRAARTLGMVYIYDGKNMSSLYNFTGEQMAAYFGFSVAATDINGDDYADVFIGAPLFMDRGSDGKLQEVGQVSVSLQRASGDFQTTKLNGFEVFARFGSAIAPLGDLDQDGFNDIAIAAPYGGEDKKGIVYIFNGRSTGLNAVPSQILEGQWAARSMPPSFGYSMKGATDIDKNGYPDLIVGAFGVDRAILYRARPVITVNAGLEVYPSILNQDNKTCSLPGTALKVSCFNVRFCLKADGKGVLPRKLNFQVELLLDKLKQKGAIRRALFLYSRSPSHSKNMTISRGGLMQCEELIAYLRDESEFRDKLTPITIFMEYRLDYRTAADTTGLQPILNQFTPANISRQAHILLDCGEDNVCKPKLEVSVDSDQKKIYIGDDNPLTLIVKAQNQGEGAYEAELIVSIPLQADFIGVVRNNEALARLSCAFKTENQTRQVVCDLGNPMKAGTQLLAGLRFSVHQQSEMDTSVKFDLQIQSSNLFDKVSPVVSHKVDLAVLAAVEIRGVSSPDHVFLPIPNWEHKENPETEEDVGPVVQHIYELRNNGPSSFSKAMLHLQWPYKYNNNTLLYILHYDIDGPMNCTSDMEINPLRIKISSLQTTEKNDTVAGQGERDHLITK
T1 sequence (P06756 891-1048 partner limits assumed): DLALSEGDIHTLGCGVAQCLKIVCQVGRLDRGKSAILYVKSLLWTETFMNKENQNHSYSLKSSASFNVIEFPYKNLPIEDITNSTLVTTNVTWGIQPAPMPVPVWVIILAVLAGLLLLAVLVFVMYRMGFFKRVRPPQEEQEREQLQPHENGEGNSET
T1 sequence (P05106 27-788): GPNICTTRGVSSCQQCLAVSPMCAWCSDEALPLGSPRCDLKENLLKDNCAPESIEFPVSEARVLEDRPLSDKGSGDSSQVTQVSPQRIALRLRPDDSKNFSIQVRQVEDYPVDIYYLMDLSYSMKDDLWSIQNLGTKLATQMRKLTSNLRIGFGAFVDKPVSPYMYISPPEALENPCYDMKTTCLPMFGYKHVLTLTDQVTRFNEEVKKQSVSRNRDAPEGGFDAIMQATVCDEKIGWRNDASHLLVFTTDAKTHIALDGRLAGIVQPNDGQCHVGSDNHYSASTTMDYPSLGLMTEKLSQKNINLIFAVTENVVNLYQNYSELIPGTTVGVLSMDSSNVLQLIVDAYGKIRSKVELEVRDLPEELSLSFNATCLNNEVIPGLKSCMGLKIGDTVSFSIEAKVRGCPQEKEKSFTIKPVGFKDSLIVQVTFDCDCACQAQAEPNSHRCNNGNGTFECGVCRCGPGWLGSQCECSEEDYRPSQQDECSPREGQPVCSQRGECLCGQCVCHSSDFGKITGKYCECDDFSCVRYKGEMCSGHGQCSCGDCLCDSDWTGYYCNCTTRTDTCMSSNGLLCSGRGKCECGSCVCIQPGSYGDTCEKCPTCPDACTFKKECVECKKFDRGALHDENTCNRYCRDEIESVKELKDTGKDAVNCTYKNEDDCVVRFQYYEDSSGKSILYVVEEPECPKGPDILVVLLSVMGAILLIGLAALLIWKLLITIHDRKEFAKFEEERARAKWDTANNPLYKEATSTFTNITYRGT

As for “cQDGRMGFc ([dC]QDGRMGF[dC]; disulfide 1-9 (inferred)) [PLZ4, bladder cancer-specific ligand peptide]”, the “binding to peripheral blood mononuclear cells” value in test [1] was “did not bind”. Further, in [2], the “binding to 12 cell lines with different origins” value was “did not bind to 10 out of 12 cell lines; also recorded: only bought to one of 12”. Also, the “binding to primary bladder cancer cells from patients” value in test [3] is listed as “could bind to cells from all 5 fresh bladder cancer specimens”. Besides, the “binding to K562 cells transfected with a503 integrin” value in test [4] is on record as “bound”. In addition, the “binding to normal canine bladder urothelial cells” value in [5] is recorded as “no cell binding”. The “binding to bladder cells from a dog with chronic cystitis” value in test [6] was “no cell binding”. Besides, the Kd in the test on K9TCC-PU-In worked out at 10.3 µM. Also, the “binding to a bladder lymphoid hyperplasia specimen” value in test [7] is “not to a bladder lymphoid hyperplasia specimen”. Moreover, in test [8], the “binding to vascular endothelial cells” value is given as “did not bind”.

Source of the values: patent US10335365B2, “Bladder cancer specific ligand peptides” (The Regents of the University of California, priority 2009, dated 2019).
